Laboratory results from publication PMC12670405, “Second-Generation AURKA-Targeting PROTACs: Structural Optimization toward in Vivo Degradation in Neuroblastoma” (Journal of Medicinal Chemistry, 2025).

Columns and labels:
Test in all cases: LC-MS/MS proteome profiling
[1] = target: T1, AURKA (Homo sapiens, UniProt O14965); format: cell-based; design: endogenous in cells; host or cells: IMR-32; key to Significant (3h SK5527vs3h DMSO) FDR0 05 / Significant (24h SK5527vs24h DMSO) FDR0 05: +: Statistical significance for differential regulation was set to a false discovery rate (FDR) of < 0.05 and |log2FC| = 2
T1 sequence (O14965 1-403): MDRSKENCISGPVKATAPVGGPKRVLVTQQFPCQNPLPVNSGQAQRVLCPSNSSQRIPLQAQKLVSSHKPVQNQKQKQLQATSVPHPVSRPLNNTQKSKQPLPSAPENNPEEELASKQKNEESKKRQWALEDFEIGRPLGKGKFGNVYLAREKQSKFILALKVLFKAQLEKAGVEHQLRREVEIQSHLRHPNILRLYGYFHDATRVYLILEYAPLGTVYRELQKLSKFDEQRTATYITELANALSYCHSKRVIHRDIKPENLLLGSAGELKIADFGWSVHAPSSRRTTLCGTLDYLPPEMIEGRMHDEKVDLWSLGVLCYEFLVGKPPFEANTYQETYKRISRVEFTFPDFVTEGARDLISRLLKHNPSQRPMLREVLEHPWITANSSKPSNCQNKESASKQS
Protocol: (§1) IMR-32 cells were seeded in T-25 flasks at a density of 1.7 million cells/flask and treated the next day with DMSO (negative control), SK5527 (500 nM) or MK-5108 (500 nM) for 3 or 24 h (data for MK-5108 not discussed in this manuscript). Cell pellets were harvested at the respective time points, lysed, and the concentration of the obtained protein lysates measured as previously described. Details on further sample preparation, LC–MS/MS, and data analysis can be found in the Supporting Information. The LC–MS/MS proteomics data have been deposited to the ProteomeXchange Consortium via the PRIDE partner repository with the data set identifier PXD061539.
(§2) Supplementary Methods 1 – LC-MS/MS proteomics
(§3) From each sample, 100 µg of protein was isolated, the volumes were equalized with water and SDS and TEAB were added to a final concentration of 5% and 50 mM, respectively. Proteins were reduced and alkylated by addition of 10 mM Tris(2-carboxyethyl)phosphine hydrochloride and 40 mM chloroacetamide and incubation for 30 minutes at 25°C in the dark. Phosphoric acid was added to a final concentration of 1.2%, and samples were subsequently diluted 7-fold with binding buffer containing 90% methanol in 100 mM TEAB, pH 7.55. The samples were loaded on the 96-well S-Trap™ plate (Protifi), placed on top of a deepwell plate, and centrifuged for 2 min at 1,500 x g at RT. After protein binding, the S-trap™ plate was washed three times by adding 200 µl binding buffer and centrifugation for 2 min at 1,500 x g at RT. A new deepwell receiver plate was placed below the 96-well S-Trap™ plate and 50 mM TEAB containing trypsin (1/100, w/w) was added for digestion overnight at 37°C.
(§4) Using centrifugation for 2 min at 1,500 x g, peptides were eluted in three steps, first with 80 µl 50 mM TEAB, then with 80 µl 0.2% formic acid (FA) in water and finally with 80 µl 0.2% FA in water/acetonitrile (ACN) (50/50, v/v). Eluted peptides were dried completely by vacuum centrifugation.
(§5) Peptides were re-dissolved in 20 µl loading solvent A (0.1% trifluoroacetic acid in water/acetonitrile (ACN) (99.5:0.5, v/v)) of which 2 µl of sample was injected for LC-MS/MS analysis on an Ultimate 3000 ProFlow nanoLC system in-line connected to a Orbitrap Exploris 240 mass spectrometer (Thermo) equipped with pneu-Nimbus dual ion source (Phoenix S&T). Trapping was performed at 20 μl/min for 2 min in loading solvent A on a PepMap™ Neo Trap column (Thermo scientific, 300 μm internal diameter (I.D.), 5 μm beads). The peptides were separated on a 250 mm Odyssey Ultimate, 1.7µm C18, 75 µm inner diameter (Ionopticks) kept at a constant temperature of 45°C. Peptides were eluted by a gradient reaching 26,4 % MS solvent B (0.1% FA in acetonitrile) after 80 min, 44% MS solvent B at 95 min, 56% MS solvent B at 100min followed by a 5-minutes wash at 56% MS solvent B and re-equilibration with MS solvent A (0.1% FA in water). The flow rate was set to 250 nl/min. The mass spectrometer was operated in data-independent mode, automatically switching between MS and MS/MS acquisition. Full-scan MS spectra ranging from 375-1500 m/z with a normalized target value of 300%, a maximum fill time of 25 ms and a resolution at of 60,000 were followed by 30 quadrupole isolations with a precursor isolation width of 10 m/z for HCD fragmentation at an NCE of 30% after filling the trap at a normalized target value of 2000% for maximum injection time of 45 ms. MS2 spectra were acquired at a resolution of 15,000 with a scan range of 200-1800 m/z in the Orbitrap analyser without multiplexing. The isolation intervals were set from 400 – 900 m/z with a width of 10 m/z using window placement optimization. The polydimethylcyclosiloxane background ion at 445.120028 Da was used for internal calibration (lock mass) and QCloud has been used to control instrument longitudinal performance during the project.
(§6) Analysis of the mass spectrometry data was performed in DiaNN (version 1.9). Precursor false discovery rate was […]
(§7) set at 1%. […]

[2] = test system: ZNF660; format: cell-based, Homo sapiens; design: key to Significant (24h SK5527vs24h DMSO) FDR0 05: +: Statistical significance for differential regulation was set to a false discovery rate (FDR) of < 0.05 and |log2FC| = 2
Protocol: as §1, §2, §3, §4, §5, §6, §7

[3] = test system: CKAP2; format: cell-based, Homo sapiens; design: key to Significant (24h SK5527vs24h DMSO) FDR0 05: +: Statistical significance for differential regulation was set to a false discovery rate (FDR) of < 0.05 and |log2FC| = 2
Protocol: as §1, §2, §3, §4, §5, §6, §7

[4] = test system: PLK1; format: cell-based, Homo sapiens; design: key to Significant (24h SK5527vs24h DMSO) FDR0 05: +: Statistical significance for differential regulation was set to a false discovery rate (FDR) of < 0.05 and |log2FC| = 2
Protocol: as §1, §2, §3, §4, §5, §6, §7

Question: For `Cc1cc(Nc2ccc(F)c(CC3(C(=O)N4CCC(F)(CN5CCN(c6ccc(N7CCC(=O)NC7=O)cn6)CC5)CC4)CCN(Cc4cccc(Cl)c4F)CC3)n2)n[nH]1` [SK5527], which “Significant (3h SK5527vs3h DMSO) FDR0 05” value ([1]; IMR-32, 3h) is on record?
Answer: +

Question: And the “logFC (3h SK5527vs3h DMSO)” value ([1]; IMR-32, 3h)?
Answer: -3.27

Question: What about the “Significant (24h SK5527vs24h DMSO) FDR0 05” value ([1]; IMR-32, 24h) of the same molecule?
Answer: +

Question: What about the “logFC (24h SK5527vs24h DMSO)” value ([1]; IMR-32, 24h) of the same molecule?
Answer: -3.1

Question: And the “logFC AURKA” value ([1]; SK5527 vs DMSO (3h))?
Answer: -3.27

Question: What about the “logFC AURKA” value ([1]; SK5527 vs DMSO (24h)) of the same molecule?
Answer: -3.1

Question: What about the “logFC (3h SK5527vs3h DMSO)” value ([2]; IMR-32, 3h) of the same molecule?
Answer: -0.15

Question: And the “Significant (24h SK5527vs24h DMSO) FDR0 05” value ([2]; IMR-32, 24h)?
Answer: +

Question: What about the “logFC (24h SK5527vs24h DMSO)” value ([2]; IMR-32, 24h) of the same molecule?
Answer: -2.02

Question: What about the “logFC ZNF660” value ([2]; SK5527 vs DMSO (24h)) of the same molecule?
Answer: -2.02

Question: What about the “logFC (3h SK5527vs3h DMSO)” value ([3]; IMR-32, 3h) of the same molecule?
Answer: 0.32

Question: And the “Significant (24h SK5527vs24h DMSO) FDR0 05” value ([3]; IMR-32, 24h)?
Answer: +

Question: What about the “logFC (24h SK5527vs24h DMSO)” value ([3]; IMR-32, 24h) of the same molecule?
Answer: 2.1

Question: What about the “logFC CKAP2” value ([3]; SK5527 vs DMSO (24h)) of the same molecule?
Answer: 2.1

Question: What about the “logFC (3h SK5527vs3h DMSO)” value ([4]; IMR-32, 3h) of the same molecule?
Answer: 0.31

Question: What about the “Significant (24h SK5527vs24h DMSO) FDR0 05” value ([4]; IMR-32, 24h) of the same molecule?
Answer: +

Question: What about the “logFC (24h SK5527vs24h DMSO)” value ([4]; IMR-32, 24h) of the same molecule?
Answer: 2.19

Question: What about the “logFC PLK1” value ([4]; SK5527 vs DMSO (24h)) of the same molecule?
Answer: 2.19
